Organism: Rattus norvegicus
Test: Open TG-GATES - Regimen: Daily Repeat
Format: toxicity, organism-based, Sprague-Dawley
Parameters: regimen Daily Repeat, gender Male, age 6 weeks
Settings: in vivo, po, 10 mg/kg, route gavage, dose level Low; for APTT / Bas / Eos / Fbg / Hb / Ht / Lym / MCH / MCHC / MCV / Mono / Neu / PT / Plat / RBC / Ret / WBC: tissue Blood; for KIDNEY_L / KIDNEY_R / KIDNEY_TOTAL: tissue Kidney; for LIVER: tissue Liver; for A/G / ALP / ALT / AST / BUN / CRE / Ca / Cl / DBIL / GLC / IP / K / LDH / Na / PL / RALB / TBIL / TC / TG / TP / gamma-GTP: tissue Plasma

Compound: CN(C)CCN(Cc1cccs1)c1ccccn1
- TERMINAL_BW (72 h, time 3 day): 219.5 g
- APTT (72 h, time 3 day): 21.1 s
- Bas (72 h, time 3 day): 0%
- Eos (72 h, time 3 day): 0.8%
- Fbg (72 h, time 3 day): 343 mg/dL
- Hb (72 h, time 3 day): 13 g/dL
- Ht (72 h, time 3 day): 39.1%
- Lym (72 h, time 3 day): 79%
- MCH (72 h, time 3 day): 21.6 pg
- MCHC (72 h, time 3 day): 33.2%
- MCV (72 h, time 3 day): 65 fL
- Mono (72 h, time 3 day): 1.6%
- Neu (72 h, time 3 day): 18%
- PT (72 h, time 3 day): 16 s
- Plat (72 h, time 3 day): 116.7 x10_4/uL
- RBC (72 h, time 3 day): 603.4 x10_4/ul
- Ret (72 h, time 3 day): 7%
- WBC (72 h, time 3 day): 85.5 x10_2/uL
- KIDNEY_L (72 h, time 3 day): 1 g
- KIDNEY_R (72 h, time 3 day): 1 g
- KIDNEY_TOTAL (72 h, time 3 day): 2 g
- LIVER (72 h, time 3 day): 10.9 g
- A/G (72 h, time 3 day): 1.1
- ALP (72 h, time 3 day): 1503.8 IU/L
- ALT (72 h, time 3 day): 43.2 IU/L
- AST (72 h, time 3 day): 72.2 IU/L
- BUN (72 h, time 3 day): 16.8 mg/dL
- CRE (72 h, time 3 day): 0.2 mg/dL
- Ca (72 h, time 3 day): 10.9 mg/dL
- Cl (72 h, time 3 day): 107 meq/L
- DBIL (72 h, time 3 day): 0 mg/dL
- GLC (72 h, time 3 day): 188.2 mg/dL
- IP (72 h, time 3 day): 7.8 mg/dL
- K (72 h, time 3 day): 4.2 meq/L
- LDH (72 h, time 3 day): 181 IU/L
- Na (72 h, time 3 day): 143.6 meq/L
- PL (72 h, time 3 day): 149.8 mg/dL
- RALB (72 h, time 3 day): 2.9 g/dL
- TBIL (72 h, time 3 day): 0.006 mg/dL
- TC (72 h, time 3 day): 80.6 mg/dL
- TG (72 h, time 3 day): 108.2 mg/dL
- TP (72 h, time 3 day): 5.6 g/dL
- gamma-GTP (72 h, time 3 day): 1.2 IU/L
- TERMINAL_BW ([…], time 7 day): 229.9 g
- TERMINAL_BW ([…], time 14 day): 284.8 g
- TERMINAL_BW ([…], time 28 day): 353.5 g
- APTT ([…], time 7 day): 22.1 s
- Bas ([…], time 7 day): 0%
- Eos ([…], time 7 day): 1%
- Fbg ([…], time 7 day): 323.4 mg/dL
- Hb ([…], time 7 day): 13.7 g/dL
- Ht ([…], time 7 day): 40.5%
- Lym ([…], time 7 day): 82.8%
- MCH ([…], time 7 day): 20.8 pg
- MCHC ([…], time 7 day): 33.8%
- MCV ([…], time 7 day): 61.6 fL
- Mono ([…], time 7 day): 2%
- Neu ([…], time 7 day): 13.2%
- PT ([…], time 7 day): 16.4 s
- Plat ([…], time 7 day): 120.4 x10_4/uL
- RBC ([…], time 7 day): 658 x10_4/ul
- Ret ([…], time 7 day): 4.8%
- WBC ([…], time 7 day): 113.4 x10_2/uL
- APTT ([…], time 14 day): 21.3 s
- Bas ([…], time 14 day): 0%
- Eos ([…], time 14 day): 0.6%
- Fbg ([…], time 14 day): 297.6 mg/dL
- Hb ([…], time 14 day): 14.3 g/dL
- Ht ([…], time 14 day): 42.1%
- Lym ([…], time 14 day): 83.6%
- MCH ([…], time 14 day): 20.8 pg
- MCHC ([…], time 14 day): 34%
- MCV ([…], time 14 day): 61.1 fL
- Mono ([…], time 14 day): 1.6%
- Neu ([…], time 14 day): 13.2%
- PT ([…], time 14 day): 16.2 s
- Plat ([…], time 14 day): 116 x10_4/uL
- RBC ([…], time 14 day): 689.4 x10_4/ul
- Ret ([…], time 14 day): 4.6%
- WBC ([…], time 14 day): 120.5 x10_2/uL
- APTT ([…], time 28 day): 22.8 s
- Bas ([…], time 28 day): 0%
- Eos ([…], time 28 day): 1.2%
- Fbg ([…], time 28 day): 307.8 mg/dL
- Hb ([…], time 28 day): 15.3 g/dL
- Ht ([…], time 28 day): 44.4%
- Lym ([…], time 28 day): 78.8%
- MCH ([…], time 28 day): 20.2 pg
- MCHC ([…], time 28 day): 34.5%
- MCV ([…], time 28 day): 58.6 fL
- Mono ([…], time 28 day): 2.2%
- Neu ([…], time 28 day): 17.2%
- PT ([…], time 28 day): 15.8 s
- Plat ([…], time 28 day): 96.3 x10_4/uL
- RBC ([…], time 28 day): 758 x10_4/ul
- Ret ([…], time 28 day): 2.6%
- WBC ([…], time 28 day): 105 x10_2/uL
- KIDNEY_L ([…], time 7 day): 1 g
- KIDNEY_R ([…], time 7 day): 1 g
- KIDNEY_TOTAL ([…], time 7 day): 2 g
- KIDNEY_L ([…], time 14 day): 1.1 g
- KIDNEY_R ([…], time 14 day): 1.2 g
- KIDNEY_TOTAL ([…], time 14 day): 2.3 g
- KIDNEY_L ([…], time 28 day): 1.2 g
- KIDNEY_R ([…], time 28 day): 1.3 g
- KIDNEY_TOTAL ([…], time 28 day): 2.5 g
- LIVER ([…], time 7 day): 10.6 g
- LIVER ([…], time 14 day): 12.3 g
- LIVER ([…], time 28 day): 14.3 g
- A/G ([…], time 7 day): 1.1
- ALP ([…], time 7 day): 1638.2 IU/L
- ALT ([…], time 7 day): 35.6 IU/L
- AST ([…], time 7 day): 66.6 IU/L
- BUN ([…], time 7 day): 18.6 mg/dL
- CRE ([…], time 7 day): 0.2 mg/dL
- Ca ([…], time 7 day): 10.4 mg/dL
- Cl ([…], time 7 day): 108.8 meq/L
- DBIL ([…], time 7 day): 0 mg/dL
- GLC ([…], time 7 day): 174.6 mg/dL
- IP ([…], time 7 day): 6.8 mg/dL
- K ([…], time 7 day): 4.7 meq/L
- LDH ([…], time 7 day): 183.8 IU/L
- Na ([…], time 7 day): 144.2 meq/L
- PL ([…], time 7 day): 129.6 mg/dL
- RALB ([…], time 7 day): 3 g/dL
- TBIL ([…], time 7 day): 0.008 mg/dL
- TC ([…], time 7 day): 63.2 mg/dL
- TG ([…], time 7 day): 109.2 mg/dL
- TP ([…], time 7 day): 5.7 g/dL
- gamma-GTP ([…], time 7 day): 1 IU/L
- A/G ([…], time 14 day): 1.1
- ALP ([…], time 14 day): 1409 IU/L
- ALT ([…], time 14 day): 39.4 IU/L
- AST ([…], time 14 day): 68.6 IU/L
- BUN ([…], time 14 day): 17.6 mg/dL
- CRE ([…], time 14 day): 0.2 mg/dL
- Ca ([…], time 14 day): 10.2 mg/dL
- Cl ([…], time 14 day): 108.2 meq/L
- DBIL ([…], time 14 day): 0.002 mg/dL
- GLC ([…], time 14 day): 175.4 mg/dL
- IP ([…], time 14 day): 6.7 mg/dL
- K ([…], time 14 day): 4.2 meq/L
- LDH ([…], time 14 day): 177.2 IU/L
- Na ([…], time 14 day): 143.2 meq/L
- PL ([…], time 14 day): 137.2 mg/dL
- RALB ([…], time 14 day): 2.9 g/dL
- TBIL ([…], time 14 day): 0.012 mg/dL
- TC ([…], time 14 day): 71.8 mg/dL
- TG ([…], time 14 day): 88.8 mg/dL
- TP ([…], time 14 day): 5.6 g/dL
- gamma-GTP ([…], time 14 day): 1 IU/L
- A/G ([…], time 28 day): 1.2
- ALP ([…], time 28 day): 1369.6 IU/L
- ALT ([…], time 28 day): 45.8 IU/L
- AST ([…], time 28 day): 73.4 IU/L
- BUN ([…], time 28 day): 20.4 mg/dL
- CRE ([…], time 28 day): 0.2 mg/dL
- Ca ([…], time 28 day): 10.3 mg/dL
- Cl ([…], time 28 day): 107.6 meq/L
- DBIL ([…], time 28 day): 0.004 mg/dL
- GLC ([…], time 28 day): 189 mg/dL
- IP ([…], time 28 day): 6.5 mg/dL
- K ([…], time 28 day): 3.9 meq/L
- LDH ([…], time 28 day): 183.6 IU/L
- Na ([…], time 28 day): 143.2 meq/L
- PL ([…], time 28 day): 142.6 mg/dL
- RALB ([…], time 28 day): 3.2 g/dL
- TBIL ([…], time 28 day): 0.026 mg/dL
- TC ([…], time 28 day): 72.4 mg/dL
- TG ([…], time 28 day): 111 mg/dL
- TP ([…], time 28 day): 5.7 g/dL
- gamma-GTP ([…], time 28 day): 1.4 IU/L

— ChEMBL document CHEMBL3885861, “Open TG-GATES”
